# Experimental data taken from patent US10398713B2, “Compositions and methods for the treatment of neurodegenerative and other diseases” (Glialogix, Inc., priority 2013, dated 2019).
# Tests used:
# SOD1^G93A mice = experiment: Survival study in SOD1 G93A mice (neurological score, survival); type: in vivo, mouse; conditions: for Expected Days, Sulfasalazine: predicted from vehicle cohort if no effect
# Description: High-copy SOD1^G93A transgenic mice were derived from the B6SJL-TgN(SOD1G93A)1Gur strain, obtained from The Jackson Laboratory (Bar Harbor, Me.) and originally produced by Gurney, e.g. Gurney et al., Science 264: 1772-1775 (1994). Animal experiments with the SOD1 model were performed at ALS Therapy Development Institute (herein “ALS-TDI”; Cambridge, Mass.). All mice were genotyped to verify copy number of the SOD1 transgene. Animal handling and study protocols were as previously described by ALS-TDI, e.g. Scott et al., Amyotroph. Lateral Scler. 9: 4-15 (2008).
# Groups were balanced with respect to gender and body weight within gender. In addition, groups were age-matched and littermate-matched. […] Each cohort of was balanced between males and females.
# (§1) 5 mL of 0.1 N NaOH was added and the tube gently sonicated. Approximately 140 μL of 1 N HCl was then added to bring the pH to 8.00. The resulting 20 mg/mL solution was delivered by intraperitoneal injection at 10 ml/kg. Vehicle treated mice were administered saline.
# Neurological scores were assessed daily from day 50 for both hind legs. The neurological score was based on a scale of 0 to 4. Criteria used to assign each score level are from Scott et al., Amyotroph. Lateral Scler. 9: 4-15 (2008) and are described in Table 2.
# The date of definitive neurological disease was the day that the mouse first scored a “2” on the Neurological Score. Upon reaching a score of Neurological Score of “4”, mice were euthanized and the date of death was recorded.
# Survival after onset of definitive neurological disease is defined as the total number of days the mice lived after reaching definitive neurological disease (Neurological Score of 2) and before death (Neurological Score of 4). Survival after onset of definitive neurological disease was analyzed in two ways.
# The first day that a neurological score was determined was day 50 of age; measurements were collected daily afterwards until death.
# The three categories were: (1) days spent before definitive neurological disease, e.g. with a neurological score of 0 or 1; (2) days spent during definitive neurological disease, e.g. with a neurological score of 2 or 3; and (3) days at death, e.g. with a neurological score of 4. By definition, mice were only in the dead state for 1 day, as they were euthanized upon reaching a neurological score of 4; this category was included as a positive control to ensure the integrity of the data and analysis.
# [1] = system: mouse model (anti-epileptic effect); conditions: approximately 260-320 mg/kg intraperitoneal; cited from earlier work
# [2] = 2 g oral dose; humans with ABCG2 genotype (421C/C); cited from earlier work
# [3] = system: activated microglial cells; experiment: Quantitative immunohistochemistry of microglial activation (anti-F4/80) in the spinal cord of SOD1 mice; type: in vivo, mouse; conditions: Microglia
# Description: Two ages of mice were chosen for this analysis: day 85, when SOD1 mice show no overt sign of the ALS-like symptomology, and day 100, when SOD1 mice typically begin displaying the first signs of ALS-like symptomology, such as partial collapse of leg extension towards lateral midline (weakness) or trembling of hind legs during a tail suspension test. For the immunohistochemical studies, a total of 48 mice were divided into 6 cohorts of 8 mice each (4 females and 4 males) as shown in Table 5.
# as §1
# Mice were sacrificed by CO2 asphyxiation according to IACUC approved protocols. The spinal cord was extruded with cold PBS into a bath of cold PBS from the vertebral column of mice using an 18 gauge needle inserted in the sacral vertebral column to a friction fit. Upon extrusion, the spinal cord tissue was rinsed and dropped into 4% paraformaldehyde for 24 hours at room temperature (RT, approximately 25° C.). The tissue was then transferred to a 1× phosphate buffered saline (PBS) solution. Samples were then processed by TissueTek processors for paraffin embedding. Spinal cord samples were then embedded in paraffin blocks and oriented for transverse sectioning. Spinal cord samples were sectioned at 10 microns thickness. Three representative sections were cut from lumbar, thoracic and cervical regions of the spinal cord. Samples were pretreated with Pronase for 20 minutes at RT, followed by treatment with 3% H2O2 for 12 minutes at RT. Horse serum was added to 2% and samples incubated for 20 minutes at RT. The samples were then incubated with the primary antibody (Anti-xCT; purchased from Abcam (Cambridge, Mass.); Catalog #Ab37185; diluted 1:500 in PBS) overnight at 4° C. The secondary antibody (Biotin labeled goat anti-rabbit IgG; 1:500 dilution in PBS) was then added and the reaction incubated overnight at RT. Reaction products were developed using the Vector ABC system (Vector Labs, Burlingame, Calif.) using avidin-conjugated horseradish peroxidase. xCT expression was visualized by addition of the chromogenic substrate DAB (3,3′-diaminobenzidine) for 10 minutes at RT. Each stained section was imaged at objectives: 4×, 10×, 20× and 40×. For each objective image, light parameters were optimized and kept consistent across all sections. For SLC7A11 analysis, all images that were captured at 20× were then imported into ImageJ freeware (NIH, Bethesda, Md.). A maximum entropy threshold algorithm was applied to all images in a completely blinded fashion to filter out all pixels that were not stained as DAB positive. The key parameter measured and reported is area fraction. Area fraction is the proportion of total pixels that are DAB positive in the ventral horn of the spinal cord. All statistical analyses were performed using JMP® 7.0, SAS Institute, Inc. Area fraction was compared with respect to treatment using 1-way ANOVA analysis, with a p-value of 0.05 considered significant.
# The same test mice, spinal cord preparations and methods of analysis used in the neuroinflammatory study were identical to those used in the xCT quantitation study. Two neuroinflammatory cell populations were quantitated: (1) activated microglial cells using an antibody to the F4/80 antigen, and (2) activated astrocytes, using an antibody to the GFAP antigen. For each objective image, light parameters were optimized and kept consistent across all sections. Images that were captured at 20× were then imported into ImageJ freeware (NIH, Bethesda, Md.). A maximum entropy threshold algorithm was applied to all images in a completely blinded fashion to filter out all pixels that were not stained as DAB positive. 20× images were analyzed in a blinded fashion and mean area fraction occupied by stain was tabulated. […]
# [4] = sulfasalazine vs vehicle, SOD1 mice, 200 mg/kg IP two times per day
smiles,measurement,setting,value
"O=C(O)c1cc(/N=N/c2ccc(S(=O)(=O)Nc3ccccn3)cc2)ccc1O [Sulfasalazine, 2-hydroxy-5-[(E)-2-{4-[(pyridin-2-yl)sulfamoyl]phenyl}diazen-1-yl]benzoic acid]",increase of median absolute survival,"SOD1^G93A mice; SOD1 mice vs vehicle, 200 mg/kg IP two times per day, p=0.07",3.5 days
same,effect on time of disease onset,"SOD1^G93A mice; SOD1 mice, 200 mg/kg IP two times per day",no statistical effect
same,"Expected Days, Sulfasalazine",SOD1^G93A mice; Total Observations,2050 days
same,Observed Days Minus Expected Days,SOD1^G93A mice; before definitive disease onset (neurological score 0 or 1),no significant difference
same,Observed Days Minus Expected Days,SOD1^G93A mice; death (neurological score 4),no significant difference
same,"Observed Days, Sulfasalazine","SOD1^G93A mice; death (neurological score 4), cohort n=27",27 days
same,"Expected Days, Sulfasalazine",SOD1^G93A mice; death (neurological score 4),27 days
same,Absolute Change in Mean Day of Death,SOD1^G93A mice; [4],3.7 days
same,Absolute Change in Mean Day of Definitive Neurological Disease,SOD1^G93A mice; [4],−1.2 day
same,Absolute Change in Total Days of Survival after Onset of Definitive Disease,SOD1^G93A mice; [4],4.9 days
same,Percent Change in Mean Day of Death,SOD1^G93A mice; [4],2.9%
same,Percent Change in Mean Day of Definitive Neurological Disease,SOD1^G93A mice; [4],−1.0%
same,Percent Change in Total Days of Survival after Onset of Definitive Disease (increased lifespan after onset),"SOD1^G93A mice; sulfasalazine vs vehicle, SOD1 mice, 200 mg/kg IP two times per day, 200 mg/kg",39%
same,"Expected Days, Sulfasalazine","SOD1^G93A mice; total days before definitive disease onset (neurological score 0 or 1), normalized for number of animals",1722 days
same,"Expected Days, Sulfasalazine",SOD1^G93A mice; total days in definitive neurological disease (neurological score 2 or 3),301 days
same,duration of anti-epileptic effect,[1],disappears by three hours after administration
same,time plasma levels above 10 μg/ml were maintained,[2],approximately 7 hours
same,Decreased activation in sulfasalazine treated SOD1 vs. vehicle treated SOD1 mice,"[3]; Cervical, Day 85, p < 0.01",significantly decreased
same,Decreased activation in sulfasalazine treated SOD1 vs. vehicle treated SOD1 mice,"[3]; Cervical, Day 85, p < 0.01, listed as sulfasalazine",Strong decrease
same,Decreased activation in sulfasalazine treated SOD1 vs. vehicle treated SOD1 mice,"[3]; Cervical, Day 100",trend towards decreased
same,Decreased activation in sulfasalazine treated SOD1 vs. vehicle treated SOD1 mice,"[3]; Cervical, Day 100, listed as sulfasalazine",Trend
same,Decreased activation in sulfasalazine treated SOD1 vs. vehicle treated SOD1 mice,"[3]; Combined (cervical, thoracic, lumbar), Day 85",Trend
same,Decreased activation in sulfasalazine treated SOD1 vs. vehicle treated SOD1 mice,"[3]; Combined (cervical, thoracic, lumbar), Day 100",No decrease
same,Decreased activation in sulfasalazine treated SOD1 vs. vehicle treated SOD1 mice,"[3]; Lumbar, Day 85","reduced microglial activation in the lumbar region in SOD1 mice, although this effect did not reach statistical significance"
same,Decreased activation in sulfasalazine treated SOD1 vs. vehicle treated SOD1 mice,"[3]; Lumbar, Day 85, listed as sulfasalazine",Trend
same,Decreased activation in sulfasalazine treated SOD1 vs. vehicle treated SOD1 mice,"[3]; Lumbar, Day 100",did not affect
same,Decreased activation in sulfasalazine treated SOD1 vs. vehicle treated SOD1 mice,"[3]; Lumbar, Day 100, listed as sulfasalazine",No decrease
same,Decreased activation in sulfasalazine treated SOD1 vs. vehicle treated SOD1 mice,"[3]; Thoracic, Day 85",No decrease
same,Decreased activation in sulfasalazine treated SOD1 vs. vehicle treated SOD1 mice,"[3]; Thoracic, Day 100",No decrease
